Source: Sander's compilation of Henry's law constants (doi:10.1021/ac00070a008)

Test: Henry solubility constant Hcp at 298.15 K (mol/(m3 Pa))
Details: reference: Li et al. (1993)

| SMILES | Henry solubility constant Hcp |
| --- | --- |
| CC(Cl)(Cl)Cl [1,1,1-trichloroethane] | 0.00057 |
| Cc1ccccc1C [1,2-dimethylbenzene] | 0.0021 |
| Cc1cc(C)cc(C)c1 [1,3,5-trimethylbenzene] | 0.0014 |
| Cc1cccc(C)c1 [1,3-dimethylbenzene] | 0.0015 |
| Cc1ccc(C)cc1 [1,4-dimethylbenzene] | 0.0014 |
| CCCBr [1-bromopropane] | 0.0011 |
| CCCCCl [1-chlorobutane] | 0.00053 |
| CCCCCCCl [1-chlorohexane] | 0.00031 |
| CCCCCCl [1-chloropentane] | 0.00042 |
| CCCI [1-iodopropane] | 0.0011 |
| CCC(C)Br (stereo unspecified) [2-bromobutane] | 0.00077 |
| CC(C)Br [2-bromopropane] | 0.00084 |
| CC(C)Cl [2-chloropropane] | 0.00054 |
| CC(C)c1ccccc1 [(2-propyl)-benzene] | 0.00089 |
| c1ccccc1 [benzene] | 0.0018 |
| CCBr [bromoethane] | 0.0013 |
| CCCCc1ccccc1 [butylbenzene] | 0.00067 |
| ClCCl [dichloromethane] | 0.0038 |
| CC(C)OC(C)C [diisopropyl ether] | 0.0044 |
| CCCOCCC [dipropyl ether] | 0.0029 |
| CCc1ccccc1 [ethylbenzene] | 0.0013 |
| CCI [iodoethane] | 0.0014 |
| Cc1ccccc1 [methylbenzene] | 0.0016 |
| CCCc1ccccc1 [propylbenzene] | 0.00091 |
| ClC(Cl)=C(Cl)Cl [tetrachloroethene] | 0.00063 |
| ClC=C(Cl)Cl [trichloroethene] | 0.001 |
